Laboratory results as given in patent publication US10092591B2, “Methods and compositions for the treatment of ischemic injury to tissue using therapeutic hypothermia” (University of Alaska Fairbanks, priority 2014, dated 2018).
Like-named read-outs stand apart in the source and are kept apart here.

Tests used:
[1] = tested on: dietary restricted (DR) rats; experiment: Induction of hypothermia by intermittent CHA and 8-SPT in ad libitum fed and dietary restricted rats; assay type: in vivo, rat
Protocol: First, shivering is alleviated through stimulation of central A1AR. Second, the Tb minimum and rate of cooling following stimulation of A1AR in the CNS can be controlled through manipulation of ambient temperature without external or internal cooling. These principles were used to develop methods for inducing hypothermia in dietary restricted (DR) rats (FIG. 3B). In FIG. 3, the magnitude and rate of cooling was controlled by adjusting ambient temperature (i.e., 16° C.) and regulating sensitivity to CHA through DR (every other day feeding, see FIG. 3B). Peripheral side effects were minimized by co-administration of 8-SPT (2.5 mg/kg i.p.) 15 min prior to CHA (0.5 mg/kg, i.p.). […].

[2] = tested on: arctic ground squirrel (AGS); conditions: CHA i.p. or into the lateral ventricle (icv), cited from earlier work
Male Sprague-Dawley rats [3] = experiment: Sustained hypothermia in conscious rats, drug delivery via sequential i.p. injections; assay type: in vivo
[4] = stated as approximated by the 4 hr injection interval; cited from earlier work
[5] = tested on: rats subjected to 8 min of asphyxial cardiac arrest; experiment: Therapeutic hypothermia in rats subjected to 8 min asphyxial cardiac arrest; assay type: in vivo, rat
Protocol: Rats aged 68-75 days were subjected to 8 min of asphyxial cardiac arrest and animals that were resuscitated within 120 sec and met additional inclusion criteria 60 min after ROSC (Table 1) were randomly allocated to a therapeutic hypothermia (TH) or a normothermic control (NC) group using a computer-generated randomization schedule without knowledge of outcome. Treatment commenced 70 min after restoration of spontaneous circulation (ROSC).
Animals assigned to the TH group were moved to 16° C. and CHA and 8-SPT delivered as described above for Drug delivery via sequential IP injections. Animals assigned to the NC group were moved to a neonatal incubator set to 29° C. and vehicles (PB and saline) delivered as described above for the control group. At the end of 24 hr the rats were moved to and housed an ambient temperature of 20° C. for 7 days until they were euthanized for tissue collection. Body temperature was monitored prior to each injection throughout treatment and daily thereafter using sc IPTT-300 transponders (BioMedic Data Systems, Inc. Seaford, Del.).
ACA was induced as described by Dave et al., 2006. Animals were anesthetized with 5% isofluorane and a 30:70 mixture of O2 and N2O followed by endotracheal intubation and mechanical ventilation. The femoral vein and artery were cannulated for continuous blood pressure monitoring and blood gas analysis. ECG leads were attached to the limbs. Physiological variables, including but not limited to PaCO2, PaO2, and pH were maintained within normal limits by adjusting respiratory rate and volume. MABP and ECG were monitored continuously. Temporalis muscle and rectal temperatures were maintained at 36.5-37.5° C. by heating lamps and Omega (Stamford, Conn.) T-CSC32 temperature controllers. To induce cardiac arrest, vecuronium (1 mg/kg) was injected I.V. and apnea was induced by disconnecting the ventilator from the endotracheal tube. Resuscitation was initiated by reconnecting the ventilator, administering epinephrine (0.01 mg/kg, I.V.) and sodium bicarbonate (1 mg/kg, I.V.) mechanically ventilating with 100% O2 at a rate of 80 bpm and manual chest compressions until MABP reached 50 mm Hg and was maintained by a spontaneously beating heart for more than 10 sec. After 10 min of ROSC, ventilation was decreased to 60 bpm and O2 lowered to 30%. Naïve animals were subjected to similar surgical procedures except that the ventilator was not disconnected from the endotracheal tube.
Post-operative (post-op) rats subjected to 6 min and 8 min CA and not assigned to hypothermia experiments were placed in a neonatal incubator overnight with only water provided (0.9% saline, I.P. based off […] body weight was injected at the end of surgery to prevent dehydration). After 8-16 hr, animals were fed, weighed, cleaned, and had neurological deficit scores (NDS) analyzed daily for 7 days beginning 2 hr post ROSC. Rats were fed a 50:50 mix of rodent chow and sugar mixed with water to create a soup, which was placed into small petri dishes to allow animals to self-feed. Animals that were unable to feed themselves were assisted via spoon-feeding. Spoon-feeding involved using a gavage needle and a 3 cc syringe to slowly and carefully inject the liquid soup material into the rat's mouth allowing their “swallow-reflex” to determine how much food was given.
Behavioral Neurological Deficit Scores (NDS) were taken daily for 7 days after asphyxial cardiac arrest to assess injury. The total NDS consists of five components: consciousness and respiration, cranial nerve function, motor function, sensory function, and coordination (leg/tail movement, cleaning, depth perception, and righting reflex) as previously described in Katz et al., 1995). The NDS range is a scale between 0 (normal function) to 100 (brain dead). […]

Male Sprague-Dawley rats [6] = experiment: Continuous CHA delivery through iPRECIO pumps at Ta 16° C. or 25° C., with 8-SPT injection; assay type: in vivo, rat; conditions: for mean minimum Tb: continuous CHA via SQ minipump, equivalent to 1 mg/kg every 4 hr, 24 hr
Protocol: To determine if the effects of CHA on heart rate were due to direct effects of CHA on the heart or to the effects of tissue temperature, programmable minipumps were employed to deliver CHA continuously for 24 hr at an ambient temperature of 25° C. and 16° C. […] For these experiments a separate group of rats was instrumented with programmable iPRECIO® pumps (DSI, St. Paul, Minn.). CHA was dissolved in 25% (w/v) hydroxypropyl-β-cyclodextrin (CD) in sterile water and 8-SPT was dissolved in 0.9% saline. Pumps delivered the same mass of CHA as in the first experiment (6 mg/kg over a 24 hr period), however, in this case CHA was delivered at a constant rate of 30 μL/hr. Heart rate (HR) and hemoglobin saturation (sO2) was monitored using a pulse oximeter every 10 min for 1 hr following a single injection of 8-SPT (25 mg/kg, i.p.) or vehicle as indicated. As before, animals in both treatment and control groups were moved to an ambient temperature (Ta) of 16° C. or 25° C. the day before the experiment and remained at this Ta until return to a Ta of 20° C., 4 hr after the end of drug delivery. Drug and vehicle treatments were administered to all animals using a balanced cross-over design. At least 1 week separated CHA and vehicle (CD) treatment and 1 hr separated 8-SPT and vehicle (saline) injections. A pulse oximeter (Vet/Ox […], Model 72042A3 Sensor Devices Inc., Lancaster, Pa.) was used to monitor heart rate (HR) and sO2. Pulse oximetry was acquired via a sensor on the paw.

[7] = tested on: arctic ground squirrel (AGS); experiment: CHA-induced torpor and hypothermic response in arctic ground squirrel; assay type: in vivo; conditions: CHA 0.1 mg/kg i.p.; trough vs peak in euthermic Tb,sc; p<0.05, n=6; FIG. 2B
Text: Adenosine is a neuroprotective by-product of cellular metabolism that accumulates and is released from the brain during traumatic events (Dunwiddie and Masino, 2001). Under nonpathologic conditions, adenosine functions as a bioenergetic network regulator (Boison et al., 2011), and as a neuromodulator with key roles in sleep, thermoregulation and hibernation (Drew and Jinka, 2012) via a family of G protein-coupled receptors (GPCR). Torpor onset in the arctic ground squirrel (AGS) is regulated within the CNS by A1AR signaling and depends on a seasonal change in sensitivity to agonists (Jinka et al., 2011). […] Moreover, CHA-induced torpor is similar to spontaneous torpor with regard to the magnitude and temporal profile of metabolic suppression and Tb decline. A seasonally regulated decrease in Tb during rest in euthermic (non-hibernating) AGS predicts onset of torpor and an increased hypothermic response to CHA. Thus, Tb in animals at rest is a biomarker of enhanced sensitivity to A1AR signaling (FIG. 2). This relationship between Tb and sensitivity to CHA is observed in rats as well as in AGS as disclosed herein.
Spontaneous torpor is indicated by abrupt decreases in Tb,sc below about 30° C.

[8] = rabbit; Liu G S et al., 1991; cited from earlier work
[9] = 8-SPT 25 mg/kg i.p. in CHA treated animals, Ta 25° C.

For `OC[C@H]1O[C@@H](n2cnc3c(NC4CCCCC4)ncnc32)[C@H](O)[C@@H]1O` [CHA, N^6-cyclohexyladenosine], the “magnitude of cooling at a given dose” value ([1]; dietary restriction (every other day feeding) vs ad libitum, CHA 0.5 mg/kg with 8-SPT) is listed as “enhanced following DR”, the “Tb in conscious rats” value ([1]; repeated co-administration: 8-SPT 2.5 mg/kg i.p. 15 min prior to CHA 0.5 mg/kg i.p., 4 hr intervals, Ta 16° C.) is listed as “immediate decrease in Tb” and the “torpor induction in summer” value ([2]; summer) is listed as “not in summer”. The “torpor induction in winter” value ([2]; winter) was “induces torpor”, the “Tb on repeated injection” value (Male Sprague-Dawley rats [3]; CHA 1.0 mg/kg i.p. at 4 hr intervals, 6 injections, 8-SPT 15 min prior, Ta 16° C.) was “steady minimum in Tb after the fourth injection” and the “Tb decreased to” value (Male Sprague-Dawley rats [3]; CHA 1.0 mg/kg i.p., 8-SPT 25 mg/kg i.p. 15 min prior, Ta 16° C., FIG. 4A) was 33 °C. For the same compound, the “time to decrease of Tb to 33° C.” value (Male Sprague-Dawley rats [3]; CHA 1.0 mg/kg i.p., 8-SPT 15 min prior, Ta 16° C.) was no more than 1 h, the “heart rate at 24 hr” value (Male Sprague-Dawley rats [3]; CHA-treated rats, 4 hr after last 8-SPT and CHA injection, FIG. 4C) was “slight, but statistically significant bradycardia” and the “time to rewarm after moving to Ta of 20° C.” value (Male Sprague-Dawley rats [3]; after 6 injections of CHA and 8-SPT, no other means of rewarming) was no more than 3.5 h. The “adverse events after rewarming” value (Male Sprague-Dawley rats [3]; after 24 hr CHA and 8-SPT at Ta 16° C.) was “without evidence of significant adverse events”, the “heart rate 5.5 hr after the last CHA injection” value (Male Sprague-Dawley rats [3]; after rewarming, FIG. 4C) was “remained significantly elevated” and the “neurological deficit scores (NDS)” value (Male Sprague-Dawley rats [3]; during hypothermia, FIG. 4B) was “increased”. The half-life [4] was roughly 4 h, the “number of healthy neurons per mm of CA1 (mean±SEM)” value ([5]; TH group n=3, 8 days after 8 min asphyxial CA, naïve 180.8±12.3, normothermic control 47.8) was 135.5±4.6 and the “survival to 8 days” value ([5]; TH group, n=3, 1 of 3 survived in normothermic control group) was 3 rats. The “individual Tb minima” value ([5]; TH group, n=3) was 29.7±0.3 °C, the “time to Tb of 31.0 to 31.6° C. after CHA injection” value ([5]; TH group, n=3) was no more than 3 h and the “time to rewarm without intervention after transfer to Ta of 20° C.” value ([5]; TH group, transfer 4 hr after last CHA injection) was no more than 5 h. For the same compound, the “time at which Tb reached a minimum after ROSC” value ([5]; cooling initiated 70 min post ROSC) was 12 h, the post-operative recovery ([5]; hypothermia group) was “recovered without need for post-op care” and the sO2 (Male Sprague-Dawley rats [6]; continuous CHA at Ta 16° C. and 25° C.) was “no effect”. For the same compound, the heart rate (Male Sprague-Dawley rats [6]; continuous CHA at Ta 16° C. and 25° C. vs CD vehicle, p<0.01) was “decreased”, the “mean minimum Tb” value (Male Sprague-Dawley rats [6]; Ta 16° C.) was 29.3±0.3 °C and the “mean minimum Tb” value (Male Sprague-Dawley rats [6]; Ta 25° C.) was 35.6±0.12 °C. For the same compound, the “maximal response to a low (non-torpor inducing) dose” value [7] was “greater when tested during a trough than when tested during a peak”.

In the case of `Cn1c(=O)c2[nH]c(-c3ccc(S(=O)(=O)O)cc3)nc2n(C)c1=O` [8-SPT, 8-p-sulfophenyltheophylline], the half-life [8] is listed as 0.75 h, the “influence on Tb” value (Male Sprague-Dawley rats [6]; 8-SPT 25 mg/kg i.p. in CHA treated animals, Ta 16° C.) is listed as “no influence on Tb” and the heart rate (Male Sprague-Dawley rats [6]; [9]) is listed as “small, but significant increase”. For the same compound, the “influence on Tb” value (Male Sprague-Dawley rats [6]; [9]) was “no influence on Tb”, the “increase in heart rate” value (Male Sprague-Dawley rats [6]; 8-SPT 25 mg/kg i.p. in animals treated with continuous CHA, Ta 16° C.) was 2 fold and the “heart rate in control animals” value (Male Sprague-Dawley rats [6]; 8-SPT in control (CD treated) animals, Ta 16° C., saline vehicle did the same) was “increased heart rate”. The “heart rate or Tb in control animals” value (Male Sprague-Dawley rats [6]; 8-SPT in control (CD treated) animals, Ta 25° C.) was “no effect on heart rate or Tb” and the “time for effects of 8-SPT to subside” value (Male Sprague-Dawley rats [6]; after 8-SPT 25 mg/kg i.p., Ta 16° C.) was no more than 60 min.
